# Test results: US12600713B2, “Crystalline forms of 6-((6,7-dimethoxyquinazolin-4-yl)oxy)-N,2-dimethylbenzofuran-3-carboxamide” (HUTCHMED LIMITED, priority 2014, dated 2026)
# Experiment: Stability of Form I under high temperature, high humidity and illumination conditions (influence factor experiment, 10 days)
# Assay type: physicochemical
# Experimental: Determination method: the test sample of Form I prepared in Example 1 was added to a culture dish, which was uncovered and put in a sealed clean container; then the container was placed under the conditions of the temperature of 60° C., the temperature of 25° C. and the relative humidity of 92.5%±5%, and the illumination of 4500 lx±500 lx respectively for 10 days; then sampled, investigated the purity and crystalline form of the sample, and compared the results of the investigation, which were shown in the following table.
structure (smiles),measurement,setting,value
"CNC(=O)c1c(C)oc2cc(Oc3ncnc4cc(OC)c(OC)cc34)ccc12 [Form I, 6-((6,7-dimethoxyquinazolin-4-yl)oxy)-N,2-dimethylbenzofuran-3-carboxamide]",Purity A%,"0 day (initial sample, Form I of Example 1)",98.94 A%
same,Purity A%,"25° C., relative humidity 92.5 ± 5% RH, open dish, 10 days",98.94 A%
same,Purity A%,"60° C., open dish, 10 days",98.94 A%
same,chemical purity and crystalline form after storage (stability conclusion),"high temperature, high humidity and illumination conditions for 10 days",not changed
same,Purity A%,"illumination 4500 lx ± 500 lx, open dish, 10 days",98.94 A%
